Assay: Solubility observations
Format: physicochemical
Experimental: To a 100 mL round-bottomed flask with a magnetic stirrer was added (2) (5.90 g, 22.67 mmol), maltol (3.57 g, 28.34 mmol), and 30 mL of acidic 2-ethoxyethanol (49:1 ethoxyethanol/12M HCl). The reaction vessel was fitted with a water-cooled condenser and the mixture heated to reflux for 64 h. The resulting suspension was vacuum-filtered while hot and the solids washed with water (50 mL), followed by acetone (50 mL), to afford the crude product as a fine brown solid. […] HRMS-ESI (m/z): [M+H]^+ calculated for C19H17N2O6 369.1081. found 369.1084.
In a typical experiment, an aqueous stock solution of DABA-bis-HP-N3 was prepared consisting of 2.28 mM ligand and 24.5 mM NaOH. […] A stock solution of Fe(NO3)3.9H2O was prepared consisting of 10.80 mM Fe^3+ and 4 mM HCl (as stabilizer). To a glass vial was added 877 μL ligand stock solution, followed by 1 mL Milli-Q H2O, followed by 123 μL Fe(III) stock and the resulting orange-red mixture (2 mL) shaken for 10 minutes. The as-synthesized particles have a mean diameter ranging from 10-20 nm (DLS). Particles were purified by filtration through an Amicon Ultra 15 mL centrifugal filter with a nominal molecular weight cutoff (MWCO) of 100 kDa, washing with 3×3 mL portions of Milli-Q H2O, spinning at 5000 rcf for 10 minutes each. The particles were resuspended in 2 mL of H2O to give an approximate azide concentration of 1 mM. The particle solution was lyophilized and the resulting dark red powder characterized by FTIR (KBr), showing the characteristic azide stretch at 2093 cm^−1 is retained after the nanoparticle synthesis.

Row | Structure (SMILES) | solubility in water (water, as disodium salt) | solubility in hot DMSO and DMF (hot DMSO and DMF) | solubility in methanol (methanol)
1 | Cc1c(O)c(=O)ccn1-c1cc(C(=O)NCCCCN=[N+]=[N-])cc(-n2ccc(=O)c(O)c2C)c1 [compound 4, Diaminobenzoic Acid Bis-HP Azide] | freely soluble |  | 
2 | Cc1c(O)c(=O)ccn1-c1cc(C(=O)O)cc(-n2ccc(=O)c(O)c2C)c1 [compound 3, Diaminobenzoic Acid Bis-Hydroxypyridinone] |  | soluble | sparingly soluble

From patent US9617541B2, “Biocompatible infinite coordination polymer nanoparticle-nucleic acid conjugates for antisense gene regulation” (NORTHWESTERN UNIVERSITY, priority 2014, dated 2017)
